Measured values taken from patent US20220177456A1, “COMPOUNDS, COMPOSITIONS AND METHODS” (Denali Therapeutics Inc., priority 2019, published 2022).

The compounds below were run on ISR pathway (ATF4 translation), H4 ATF4-NLuc (clone 17) cell line (assay: ATF4 Nano Luciferase reporter integrated stress response (ISR) assay in H4 ATF4-NLuc cells). Settings: human H4 neuroglioma ATF4-NLuc cells; compound 30 minutes, then 50 μm sodium arsenite for 6 hours; luminescence readout.
Assay type: cell-based
Excerpt: Cellular stress leads to activation of the integrated stress response pathway through one of four eukaryotic initiation factor 2α kinases and halts global translation, while allowing for the translation of select transcripts like ATF4 (activating transcription factor 4) that are important for the response to cellular stress. During normal conditions, small open reading frames (ORFs) in the 5′ UTR of ATF4 occupy the ribosome and prevent translation of the coding sequence of ATF4. During stress conditions however, the ribosome scans past these upstream ORFs and preferentially begins translation at the coding sequence of ATF4. In this way, the translation, and thus protein level of ATF4 is a readout of ISR pathway activation. Thus, a fusion of the uORFs and the beginning of the coding sequence of ATF to a common cellular reporter like nano-luciferase allows for a sensitive and high-throughput readout of ISR pathway activity.
Compounds as provided herein were tested in the following assay. The ATF4 Nano Luciferase reporter was constructed by fusing the human full length 5′ untranslated region (5′-UTR) and a small portion of the coding sequence of the ATF4 gene upstream of the Nano Luciferase (NLuc) coding sequence lacking it's start codon. Specifically, nucleotides +1 through +364 (relative to the transcriptional start site) of ATF4 transcript variant 2 (NCBI NM_182810.2) flanked 5′ by EcoRI and 3′ by BamHI restriction enzyme sites were synthesized and cloned into the EcoRI/BamHI cloning sites of pLVX-EF1a-IRES-Puro lentivirus vector (Clontech). Lentiviral particles were produced with Lenti-X single shots (VSV-G, Clontech) according to the manufacturer's instructions and used to transduce a human H4 neuroglioma cell line (ATCC HT1B-148). H4 cells were selected with 1.25 μg/mL Puromycin, and clonal cell lines generated by limiting dilution. We utilized this cell line to generate an integrated stress response (ISR) assay to evaluate the activity of ISR pathway inhibitors via luminescence readout. The H4 ATF4-NLuc (clone 17) cell line is plated at a density of […] cells in 96-well or 384-well respectively in DMEM +10% fetal bovine serum. 24-hours later test compounds diluted in dimethyl sulfoxide (DMSO) are added for 30 minutes at 37° C., followed by ISR pathway activation with 50 μm sodium arsenite aqueous solution for 6 additional hours. Nano Glo luciferase reagent (N1150, Promega) is added according to manufacturer instructions and the luminescence signal (corresponding to the level of ATF4 translation and thus ISR pathway activation) is read with a standard plate reader with luminescence detection capabilities.
In the tables below, activity of the tested compounds is provided, and in Table 3 as follows: +++=0.003 μM<IC50<1 μM; ++=IC50 1-10 μM; +=IC50>10 μM.

IC50, 3 to 1000 nM:
O=C(N[C@H]1C[C@@H](OC(F)(F)F)C1)[C@@H]1CC[C@@H](n2cnc(-c3ccc(Cl)c(F)c3)c2)CO1 [Example 25, (2S,5R)-5-[4-(4-chloro-3-fluoro-phenyl)imidazol-1-yl]-N-[3-cis-(trifluoromethoxy)cyclobutyl] tetrahydropyran-2-carboxamide]
O=C(NC[C@H]1C[C@@H](OC(F)(F)F)C1)[C@@H]1CC[C@@H](n2cnc(-c3ccc(Cl)c(F)c3)c2)CO1 [Example 26, (2S,5R)-5-[4-(4-chloro-3-fluoro-phenyl)imidazol-1-yl]-N-[[3-cis-(trifluoromethoxy)cyclobutyl]methyl] tetrahydropyran-2-carboxamide]
O=C(COc1ccc(Cl)cc1)N[C@@H]1CC[C@@H](C(=O)NCc2ccc(C(F)(F)F)cn2)OC1 [Example 27, (2S,5R)-5-[[2-(4-chlorophenoxy)acetyl]amino]-N-[[5-(trifluoromethyl)-2-pyridyl]methyl] tetrahydropyran-2-carboxamide]
O=C(COc1ccc(C(F)(F)F)cc1)N[C@@H]1CC[C@@H](C(=O)Nc2ccc3cc(C(F)(F)F)ccc3n2)OC1 [Example 28, (2S,5R)-5-[[2-[4-(trifluoromethyl)phenoxy]acetyl]amino]-N-[6-(trifluoromethyl)-2-quinolyl]tetrahydropyran-2-carboxamide]
O=C(COc1ccc(Cl)cc1)N[C@@H]1CC[C@@H](C(=O)NCc2ccc(Cl)cc2)OC1 [Example 29, (2S,5R)-5-[[2-(4-chlorophenoxy)acetyl]amino]-N-[(4-chlorophenyl)methyl] tetrahydropyran-2-carboxamide]
O=C(COc1ccc(Cl)c(F)c1)N[C@@H]1CC[C@@H](C(=O)N2CCC(OC(F)(F)F)CC2)OC1 [Example 30, 2-(4-chloro-3-fluoro-phenoxy)-N-[(3R,6S)-6-[4-(trifluoromethoxy)piperidine-1-carbonyl]tetrahydropyran-3-yl]acetamide]
O=C(COc1ccc(Cl)c(F)c1)N[C@@H]1CC[C@@H](C(=O)N2CCC(OC(F)(F)F)C2)OC1 (stereo partly drawn) [Example 31, 2-(4-chloro-3-fluoro-phenoxy)-N-[(3R,6S)-6-[3-(trifluoromethoxy)pyrrolidine-1-carbonyl]tetrahydropyran-3-yl]acetamide]
